Test results taken from patent US10011629B2, “Nucleoside analogs for treatment of the flaviviridae family of viruses and cancer” (Cocrystal Pharma, Inc., priority 2015, dated 2018).
Read-outs that look alike come from different tables or passages of the source.

Experiments:
[1] = tested on: mitochondrial DNA (COXII gene) in HepG2 cells; test: Mitochondrial DNA level in HepG2 cells (real-time PCR)
Procedure: This assay was used in all studies described in this application that determine the effect of compounds on mitochondrial DNA content. In this assay, low-passage-number HepG2 cells were seeded at 5,000 cells/well in collagen-coated 96-well plates. Test compounds were added to the medium to obtain final concentrations of 0 μM, 0.1 μM, 10 μM and 100 μM. […] The mitochondrial cytochrome c oxidase subunit II (COXII) gene and the ß-actin or rRNA gene were amplified from 5 μl of the eluted nucleic acids using a multiplex Q-PCR protocol with suitable primers and probes for both target and reference amplifications. […] For exon 3 of the ß-actin gene (GenBank accession number E01094) the sense, probe, and antisense primers are 5′-[…]-3′ (SEQ ID NO. 4), 5′-6-[…]-3′ (SEQ ID NO. 5) and 5′-[…]-3′ (SEQ ID NO. 6), respectively. The primers and probes for the rRNA gene are commercially available from Applied Biosystems. […] The arithmetic formula for this approach is given by 2-ΔΔCT, where ΔΔCT is (CT for average target test sample−CT for target control)−(CT for average reference test−CT for reference control) (see Johnson M R, K Wang, J B Smith, M J Heslin, R B Diasio. Quantitation of dihydropyrimidine dehydrogenase expression by real-time reverse transcription polymerase chain reaction. Anal. Biochem. 2000; 278:175-184). A decrease in mitochondrial DNA content in cells grown in the presence of drug indicated mitochondrial toxicity.

[2] = tested on: nuclear DNA (ß-actin or rRNA gene) in HepG2 cells; test: Nuclear DNA level in HepG2 cells (real-time PCR); assay type: cell-based, human; details: Homo sapiens, 336 h, HepG2 cells, 14-day assay
Procedure: This assay was used in all studies described in this application that determine the effect of compounds on mitochondrial DNA content. In this assay, low-passage-number HepG2 cells were seeded at 5,000 cells/well in collagen-coated 96-well plates. Test compounds were added to the medium to obtain final concentrations of 0 μM, 0.1 μM, 10 μM and 100 μM. […] The mitochondrial cytochrome c oxidase subunit II (COXII) gene and the ß-actin or rRNA gene were amplified from 5 μl of the eluted nucleic acids using a multiplex Q-PCR protocol with suitable primers and probes for both target and reference amplifications. […] For exon 3 of the ß-actin gene (GenBank accession number E01094) the sense, probe, and antisense primers are 5′-[…]-3′ (SEQ ID NO. 4), 5′-6-[…]-3′ (SEQ ID NO. 5) and 5′-[…]-3′ (SEQ ID NO. 6), respectively. The primers and probes for the rRNA gene are commercially available from Applied Biosystems. […] The comparative CT method uses arithmetic formulas in which the amount of target (COXII gene) is normalized to the amount of an endogenous reference (the B-actin or rRNA gene) and is relative to a calibrator (a control with no drug at day 7). The arithmetic formula for this approach is given by 2-ΔΔCT, where ΔΔCT is (CT for average target test sample−CT for target control)−(CT for average reference test−CT for reference control) (see Johnson M R, K Wang, J B Smith, M J Heslin, R B Diasio. Quantitation of dihydropyrimidine dehydrogenase expression by real-time reverse transcription polymerase chain reaction. Anal. Biochem. 2000; 278:175-184). A decrease in mitochondrial DNA content in cells grown in the presence of drug indicated mitochondrial toxicity.

HepG2 cells = test: Lactic acid production in HepG2 cells; assay type: cell-based, human; details: 14-day assay
Procedure: To measure the effects of the compounds on lactic acid production, HepG2 cells from a stock culture were diluted and plated in 12-well culture plates at 2.5×10^4 cells per well. […] […] The culture medium was then filtered, and the lactic acid content in the medium was determined using a colorimetric lactic acid assay (Sigma-Aldrich). Since lactic acid product can be considered a marker for impaired mitochondrial function, elevated levels of lactic acid production detected in cells grown in the presence of test compounds would indicate a drug-induced cytotoxic effect.

[3] = Assay for bone marrow cytotoxicity; assay type: cell-based, human; details: human, primary bone marrow mononuclear cells; organization LOBP; read-out: Bone marrow toxicity, CC50
Procedure: Primary human bone marrow mononuclear cells can be obtained commercially from Cambrex Bioscience (Walkersville, Md.). CFU-GM assays is carried out using a bilayer soft agar in the presence of 50 units/mL human recombinant granulocyte/macrophage colony-stimulating factor, while BFU-E assays used a […] matrix containing 1 unit/mL erythropoietin (see Sommadossi J P, Carlisle R. Toxicity of 3′-azido-3′-deoxythymidine and 9-(1,3-dihydroxy-2-propoxymethyl) guanine for normal human hepatopoietic progenitor cells in vitro. Antimicrob. Agents Chemother. 1987; 31: 452-454; Sommadossi, J P, Schinazi, R F, Chu, C K, and Xie, M Y. Comparison of cytotoxicity of the (−) and (+) enantiomer of 2′,3′-dideoxy-3′-thiacytidine in normal human bone marrow progenitor cells. Biochem. Pharmacol. 1992; 44:1921-1925). Each experiment can be performed in duplicate in cells from three different donors. AZT is used as a positive control. […] Statistical analysis can be performed with Student's t test for independent non-paired samples.

[4] = tested on: HCV 1b (Huh 7 Clone B cells containing HCV Replicon RNA); test: HCV replicon assay; assay type: cell-based; details: Hepatitis C virus, Huh-7, read-out: EC90 (μM or letter value) or % inhib HCV
Procedure: Huh 7 Clone B cells containing HCV Replicon RNA were seeded in a 96-well plate at 5000 cells/well, and the compounds tested at 10 μM in triplicate immediately after seeding. Following five days incubation (37° C., 5% CO2), total cellular RNA was isolated by using versaGene RNA purification kit from Gentra. Replicon RNA and an internal control (TaqMan rRNA control reagents, Applied Biosystems) were amplified in a single step multiplex Real Time RT-PCR Assay. The antiviral effectiveness of the compounds was calculated by subtracting the threshold RT-PCR cycle of the test compound from the threshold RT-PCR cycle of the no-drug control (ΔCt HCV). A ΔCt of 3.3 equals a 1-log reduction (equal to 90% less starting material) in Replicon RNA levels. The cytotoxicity of the compounds was also calculated by using the ΔCt rRNA values. 2′-C-Me-C was used as the positive control. To determine EC90 and IC50 values^2, ΔCt: values were first converted into fraction of starting material^3 and then were used to calculate the % inhibition. […]

[5] = Cytotoxicity in HCV replicon assay (ΔCt rRNA); assay type: cell-based; details: human
Procedure: Huh 7 Clone B cells containing HCV Replicon RNA were seeded in a 96-well plate at 5000 cells/well, and the compounds tested at 10 μM in triplicate immediately after seeding. Following five days incubation (37° C., 5% CO2), total cellular RNA was isolated by using versaGene RNA purification kit from Gentra. Replicon RNA and an internal control (TaqMan rRNA control reagents, Applied Biosystems) were amplified in a single step multiplex Real Time RT-PCR Assay. The antiviral effectiveness of the compounds was calculated by subtracting the threshold RT-PCR cycle of the test compound from the threshold RT-PCR cycle of the no-drug control (ΔCt HCV). A ΔCt of 3.3 equals a 1-log reduction (equal to 90% less starting material) in Replicon RNA levels. The cytotoxicity of the compounds was also calculated by using the ΔCt rRNA values. 2′-C-Me-C was used as the positive control. To determine EC90 and IC50 values^2, ΔCt: values were first converted into fraction of starting material^3 and then were used to calculate the % inhibition.

Huh-7 cells = test: Cellular pharmacology in Huh7 cells (intracellular metabolites); details: Huh-7 cells, 50 μM, 4 hr
Procedure: Ice-cold 70% methanol was used as the extraction solvent. ddATP (10 nM) was used as the internal standard.

[6] = target: HCV NS5B RNA polymerase GT 3a WT; test: NS5B enzyme assay, GT 3a WT; assay type: biochemical; details: NS5B enzyme GT 3a WT; average of two to three replicates ± SD
Procedure: The 21-amino-acid C-terminal truncated HCV NS5B RNA polymerase can be cloned from the HCV replicon cells, modified with a six-His-terminal tail, expressed in a prokaryotic expression vector (pQE60; Qiagen), and subsequently purified over a Talon cobalt affinity resin column (Clontech, Palo Alto, Calif.).^1 Purification can be monitored by SDS-PAGE and Western blotting. The resulting purified protein can be dialyzed overnight against 50 mM sodium phosphate (pH 8.0)-300 mM sodium chloride-0.5% Triton X-100-50% glycerol-2 mM dithiothreitol. The dialysate maintains consistent activity for more than 6 months when stored at −20° C. Protein can be quantified with the Coomassie Plus protein assay reagent (Pierce) by using a bovine serum albumin standard from the same supplier.
NS5B RNA polymerase reaction can be studied by monitoring the incorporation of ^32P-labeled UMP into the newly synthesized RNA strand by using minus IRES as the template. […] After the membrane is rinsed with water followed by rinsing with ethanol, the dots can be cut out and the radioactivity counted in a Packard liquid scintillation counter. The amount of product can be calculated on the basis of the total radioactivity in the reaction mixture. The rate of the reaction can be determined from the slope of the time course of product formation. […]

[7] = Homo sapiens, HepG2, read-out: % inhibition MitDNA

Row | SMILES | Summary (mitochondrial toxicity) [1] | inhibition at 10 µM [1, 7] [%] | inhibition at 50 µM [1, 7] [%] | IC50 ([1]; Homo sapiens, HepG2, read-out: IC50 MitDNA) [µM] | Summary (mitochondrial toxicity) ([1]; human, 14 days) | MitDNA Content (% of control) ([1]; human, 14 days, 10 μM) | MitDNA Content (% of control) ([1]; human, 14 days, 50 μM) | inhibition at 10 µM ([2]; 10 μM, read-out: % inhibition nDNA) [%] | inhibition at 50 µM ([2]; 50 μM, read-out: % inhibition nDNA) [%] | IC50 ([2]; read-out: IC50 nDNA) [µM] | Lactic acid Production (% of control) (HepG2 cells; 10 μM) | Lactic acid Production (% of control) (HepG2 cells; 50 μM) | CC50 [3] [µM] | EC90 [4] [µM] | CC50 at 5 days [5] [µM] | intracellular 7-DP (Huh-7 cells) | intracellular 7-MP (Huh-7 cells) | intracellular 7-TP (Huh-7 cells) | intracellular 9 (Huh-7 cells) | EC50 [6] [µM]
1 | O=c1ccn([C@@H]2O[C@H](CO)[C@@H](O)[C@@]2(F)Br)c(=O)[nH]1 [Compound 7, 2′-Deoxy-2′-Bromo-2′-Fluoro Uridine] | not toxic | < 1 | 13.5 | > 50 | non-toxic up to 10 μM | 117 (98-138) % of control | 72 (63-83) % of control | 4.4 | < 1 | > 50 | 85.0 ± 16.3 % of control | 69.0 ± 13.5 % of control | > 100 | > 10 | > 10 | BLOQ | BLOQ | BLOQ | BLOQ | 
2 | C[C@@]1(O)[C@H](O)[C@@H](COP(=O)(O)OP(=O)(O)OP(=O)(O)O)O[C@H]1n1ccc(=O)[nH]c1=O [2′-Me-UTP] |  |  |  |  |  |  |  |  |  |  |  |  |  |  |  |  |  |  |  | 1.8
